Experimental data: patent publication US20260263613A1, “USE OF DRUG C[…]-CD20 ANTIBODY-DRUG CONJUGATE IN PREPARATION OF DRUG FOR TREATING NHL” (priority 2023, published 2026)
Several values for one entry are separate records, joined by “and”; a condition that tells them apart may be missing. Identical values can stand only once.

Experiments:
[1] = tested on: human lymphoma OCI-LY19 cell xenograft tumors; assay: Growth inhibition of human lymphoma OCI-LY19 cell xenograft tumors; assay type: in vivo, mouse
Protocol: Embodiment 4: Growth Inhibition of Human Lymphoma OCI-LY19 Cell Xenograft Tumors by TRS005 Alone and TRS005 in Combination with CHP Compared to R-CHOP Regimen Administration
(§1) The drug information is the same as in Embodiment 3. Under sterile conditions, each mouse was inoculated with 0.1 mL of OCI-LY19 cell suspension at a concentration of 2×10^6/mL subcutaneously on the right back. When the mean TV reached ~150 mm^3, animals were randomized into 4 groups according to their TV: Group 1 (Vehicle), Group 2 (R-CHOP), Group 3 (TRS005) and Group 4 (T-CHP), with 10 mice in each group, so that the difference in TV of mice in each group was <10% of the mean. The day of grouping was recorded as Day 0, and the administration was started according to animal BW.
(§2) The BW and TV of animals were measured twice a week during the study. During the study, the clinical symptoms of animals were observed and recorded once a day. Clinical observations included general health status, abnormal BW and behavior of animals, and other treatment-related adverse reactions. During the study, if an individual experimental animal meets any of the following conditions, the animal will be removed from the study group and euthanized. 1. The body weight loss (BWL) of animals was ≥20% compared with Day 0; 2. Animals had serious adverse reactions, such as blindness and paralysis; 3. TV was >2000 mm^3; 4. Open ulcers were formed on the tumor surface.
The calculation formula for TV is: ½×a×b^2, where a and b are the measured length and width of the tumor, respectively.
(§3) The tumor growth inhibition rate (% TGI) is calculated as follows: (1−TVT/TVC)×100%, where TVC is the mean TV of the negative control group, and TVT is the mean TV of the treatment group.
(§4) Relative Tumor Volume (RTV) is calculated as Vt/V0, where V0 is the TV at grouping and Vt is the TV at each measurement.
(§5) The calculation formula for relative tumor proliferation rate (% T/CRTV) is: • TRTV/CRTV×100%, where TRTV is the RTV of the treatment group and CRTV is the RTV of the negative control group.

[2] = tested on: human lymphoma WSU-DLCL2 cell xenograft tumor; assay: Inhibition of human lymphoma WSU-DLCL2 cell xenograft tumor growth; assay type: in vivo, SCID mouse
Protocol: Example 3: Inhibition of Human Lymphoma WSU-DLCL2 Cell Xenograft Tumor Growth by TRS005 Alone and TRS005 in Combination with CHP Compared to R-CHOP Regimen Administration Drug Information, Model Establishment, Grouping, and Administration
The TRS005 finished product is provided by Zhejiang Teruisi Pharmaceutical Inc., and other positive drugs are commercially available. Among them, MabThera, Cyclophosphamide, Doxorubicin, Vincristine, and Prednisone are prepared with normal saline as the solvent to corresponding concentrations and stored at 4° C. away from light. The TRS005 finished product is reconstituted with sterile water for injection (WFI), and a corresponding volume of normal saline is added to prepare the corresponding concentration. The TRS005 finished product is reconstituted and packaged with WFI and stored at −70° C.
(§6) Under sterile conditions, each SCID mouse was inoculated with 0.1 mL of WSU-DLCL2 cell suspension at a concentration of 4×10^7/mL subcutaneously on the right back. When the mean tumor volume (TV) reached ~150 mm^3, animals were randomized into 4 groups according to their TV: Group 1 (Vehicle), Group 2 (R-CHOP), Group 3 (TRS005) and Group 4 (TRS005-CHP (T-CHP)), with 6 mice in each group, so that the difference in TV of mice in each group was <10% of the mean. The day of grouping was recorded as Day 0, and the administration was started according to animal body weight (BW).
(§7) The BW and TV of animals were measured twice a week during the study. During the study, the clinical symptoms of animals were observed and recorded once a day. Clinical observations included general health status, abnormal BW and behavior of animals, and other treatment-related adverse reactions.
as §3, §4, §5
(§8) According to the Technical Guidelines for Nonclinical Study of Cytotoxic Anti-tumor Drugs (November 2006) issued by NMPA in China, it is considered effective if % T/CRTV≤40% and P<0.05 after statistical analysis. Drug doses are considered to be severely toxic when the number of animal deaths related to the drug exceeds 20%.

[3] = Body weight and drug-related deaths of WSU-DLCL2 tumor-bearing animals; assay type: in vivo, SCID mouse
Protocol: as §6, §7
(§9) The animal body weight change (% BWC) is calculated as follows: (BWt−BW0)/BW0×100%, where BWt is the animal BW at each measurement and BW0 is the animal BW at grouping.
as §8

[4] = Body weight and drug-related deaths of OCI-LY19 tumor-bearing animals; assay type: in vivo, mouse
Protocol: as §1, §2, §9

For “TRS005: anti-CD20 ADC; mAb is Rituximab or a biosimilar thereof, drug antibody ratio (DAR) 4.2±0.5”, the “Tumor Volume (Mean ± SEM) Day 0” value ([1]; Day 0 (at grouping, before dosing), 10 mice/group) was 107.78 mm^3, the “% T/CRTV Day 14” value ([1]; Day 14) was 48.28% and the “% TGI Day 14” value ([1]; Day 14) was 51.87%. For the same substance, the “Tumor Volume (Mean ± SEM) Day 14” value ([1]; Day 14, TRS005 1.5 mg/kg IV BIW × 3 w, regimens per Table 5, 1.5 mg/kg) was 905.30±129.66 mm^3 and 905.30 mm^3, the “RTV Day 14” value ([1]; Day 14, Vt/V0) was 8.29 and the “Tumor Volume (Mean ± SEM) Day 17” value ([1]; Day 17) was 1182.02 mm^3. For the same substance, the “Tumor Volume (Mean ± SEM) Day 21” value ([1]; Day 21, remaining mice (Group 3 N = 9)) was 1764.32 mm^3, the “Tumor Volume (Mean ± SEM) Day 24” value ([1]; Day 24, remaining mice (Group 3 N = 6)) was 2274.64 mm^3 and the “Tumor Volume (Mean ± SEM) Day 28” value ([1]; Day 28, remaining mice (Group 2 N = 3, Group 3 N = 1, Group 4 N = 9)) was 0.00 mm^3. For the same substance, the “Anti-tumor efficacy in words” value ([2]; WSU-DLCL2 xenograft (high CD20 expression), compared with the other regimens) was “better efficacy than the R-CHOP regimen”, the “Tumor Volume (Mean ± SEM) Day 0” value ([2]; WSU-DLCL2 xenograft, Day 0 (at grouping, before dosing), 6 mice/group) was 127.16 mm^3 and the “% T/CRTV Day 35” value ([2]; WSU-DLCL2 xenograft, Day 35) was 17.81%. For the same substance, the “RTV Day 35” value ([2]; WSU-DLCL2 xenograft, Day 35, Vt/V0) was 2.44, the “Tumor Volume (Mean ± SEM) Day 35” value ([2]; WSU-DLCL2 xenograft, Day 35, TRS005 0.75 mg/kg IV BIW × 3 w, regimens per Table 2, 0.75 mg/kg) was 315.93±94.23 mm^3 and 315.93 mm^3 and the “% TGI Day 35” value ([2]; WSU-DLCL2 xenograft, Day 35, regimens per Table 2) was 81.94%. The “Body Weight of Mice (Mean ± SEM) Day 0” value ([3]; Day 0 (baseline)) was 20.12 ± 0.35 g, the “Body Weight of Mice (Mean ± SEM) Day 35” value ([3]; Day 35) was 20.78 ± 0.50 g and the “% BWC Day 35 vs Day 0” value ([3]; WSU-DLCL2 tumor-bearing mice) was 3.25%. The “Body weight change Day 35 vs Day 0” value ([3]; WSU-DLCL2 tumor-bearing mice) was 0.66 g, the “Safety / drug-related toxicity in words” value ([3]; WSU-DLCL2 tumor-bearing mice, during the study) was “good safety” and the “Number of Mice with Drug-related Deaths Day 35” value ([3]; deaths/number of mice) was 0/6. For the same substance, the “Body Weight of Mice (Mean ± SEM) Day 0” value ([4]; Day 0 (baseline)) was 20.95 ± 0.36 g, the “Body Weight of Mice (Mean ± SEM) Day 14” value ([4]; Day 14) was 22.76 ± 0.45 g and the “% BWC Day 14 vs Day 0” value ([4]; OCI-LY19 tumor-bearing mice) was 8.96%. The “Body weight change Day 14 vs Day 0 (in g)” value ([4]; OCI-LY19 tumor-bearing mice) was “(1.81 g)”, the “Safety / drug-related toxicity in words” value ([4]; OCI-LY19 tumor-bearing mice, during the study) was “good safety” and the “Number of Mice with Drug-related Deaths Day 14” value ([4]; deaths/number of mice) was 0/10.
